The structures appear in SMILES notation. Calls of active or inactive are those of the source. The rule behind the calls is not given here.

The EC50 is the concentration at which the effect is half-maximal. For orientation: CC50 means the concentration that lowers cell viability or growth by half. The term IC50 denotes the concentration needed to halve the response being measured.

Test system in the first data set: not listed separately
Briefly: Competitive binding affinity to Fe3+ ion assessed as metal chelating activity by measuring binding constant by calcein probe based fluorescence displacement assay.
Conditions: not given
Take `Cc1c(O)c(=O)ccn1-c1ccc(N(C)CCO)cc1`: the Kb was 1.15 10^22/M.
The same measure, in the same setting: for `COc1cc(N2CCN(C)CC2)ccc1-n1ccc(=O)c(O)c1C` the value was 1.88 10^22/M.
The same measure, in the same setting: for `Cc1c(O)c(=O)ccn1-c1ccc(OC2CCN(C)C2)cc1` (stereo not drawn) the value was 1.35 10^22/M.
Still for that read-out and setting: as for `Cc1c(O)c(=O)ccn1-c1ccc(N(C)CCN(C)C)cc1.Cl`, the figure is 1.16 10^22/M; as for `Cc1c(O)c(=O)ccn1-c1ccc(OCCN(C)C)cc1`, 1.37 10^22/M; as for `Cc1c(O)c(=O)ccn1CCN(C)C`, 1.21 10^22/M.
For the compound `Cc1c(O)c(=O)ccn1CC1CCCCC1`, the Kb is 1.32 10^22/M.
`Cc1c(O)c(=O)ccn1-c1ccc(N2CCN(C)CC2)cc1`: the Kb was 1.3 10^22/M.
Still for that read-out and setting: as for `Cc1c(O)c(=O)ccn1-c1ccc(NCCN2CCN(C)CC2)cc1`, the figure is 1.22 10^22/M; as for `Cc1c(O)c(=O)ccn1-c1ccc(OCCN2CCCCC2)cc1`, 2.23 10^22/M.

The target of the next data set is Hypoxia-inducible factor 1-alpha (Homo sapiens) (UniProt Q16665). Briefly: Induction of HIF-1alpha stabilization in human HK-2 cells by Western blotting analysis. The format is cell-based. The note with it: dose 5-20 µM. In general terms: In western blotting, separated proteins are transferred to a membrane and probed.
Chain of Hypoxia-inducible factor 1-alpha (Homo sapiens) (Q16665 whole entry, looked up): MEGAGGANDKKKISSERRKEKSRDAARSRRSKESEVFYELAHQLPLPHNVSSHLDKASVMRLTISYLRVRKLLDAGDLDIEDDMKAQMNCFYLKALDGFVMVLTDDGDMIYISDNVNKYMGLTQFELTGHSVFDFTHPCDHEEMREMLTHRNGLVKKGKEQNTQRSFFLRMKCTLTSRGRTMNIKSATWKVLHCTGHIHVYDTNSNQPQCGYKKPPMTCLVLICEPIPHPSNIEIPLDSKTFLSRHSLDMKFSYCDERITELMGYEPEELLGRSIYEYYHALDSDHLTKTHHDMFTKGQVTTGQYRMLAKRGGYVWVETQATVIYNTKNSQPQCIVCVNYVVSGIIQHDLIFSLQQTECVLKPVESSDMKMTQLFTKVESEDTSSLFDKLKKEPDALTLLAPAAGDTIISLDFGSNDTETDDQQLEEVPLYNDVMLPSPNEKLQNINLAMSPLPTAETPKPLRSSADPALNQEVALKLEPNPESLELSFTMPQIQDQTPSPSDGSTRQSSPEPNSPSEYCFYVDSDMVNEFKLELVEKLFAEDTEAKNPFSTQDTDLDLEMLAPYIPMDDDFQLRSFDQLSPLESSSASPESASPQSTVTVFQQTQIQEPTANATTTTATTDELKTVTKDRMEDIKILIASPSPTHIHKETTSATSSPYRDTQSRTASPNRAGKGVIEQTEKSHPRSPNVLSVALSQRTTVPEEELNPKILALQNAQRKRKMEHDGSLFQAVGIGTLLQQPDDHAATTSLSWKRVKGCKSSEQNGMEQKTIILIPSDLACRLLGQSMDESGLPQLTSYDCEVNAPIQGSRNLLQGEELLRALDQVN
In the case of `Cc1c(O)c(=O)ccn1-c1ccc(N(C)CCN(C)C)cc1.Cl`, the Activity entry was “Dose-Dependent Effect”.

Another data set concerns HK-2. Briefly: Inhibition of RSL-3 induced ferroptosis in human HK-2 cells incubated for 48 hrs in presence of FAC. The class given is functional, cell-based. The note with it: HK-2, 48 h.
With `Cc1c(O)c(=O)ccn1-c1ccc(N(C)CCO)cc1`, the EC50 came to 46 µM.
The same measure, in the same setting: for `COc1cc(N2CCN(C)CC2)ccc1-n1ccc(=O)c(O)c1C` the value was above 100 µM; for `Cc1c(O)c(=O)ccn1-c1ccc(OC2CCN(C)C2)cc1` (stereo not drawn), above 100 µM; for `Cc1c(O)c(=O)ccn1-c1ccc(N(C)CCN(C)C)cc1.Cl`, 20 µM.
On the same count and under the same terms, as for `Cc1c(O)c(=O)ccn1-c1ccc(OCCN(C)C)cc1`, the figure is 18 µM.
The same measure, in the same setting: for `Cc1c(O)c(=O)ccn1CCN(C)C` the value was above 100 µM; for `Cc1c(O)c(=O)ccn1CC1CCCCC1`, above 100 µM; for `Cc1c(O)c(=O)ccn1-c1ccc(N2CCN(C)CC2)cc1`, 60 µM.
As for `Cc1c(O)c(=O)ccn1-c1ccc(NCCN2CCN(C)CC2)cc1`, the EC50 was found to be 44 µM.
On to `Cc1c(O)c(=O)ccn1-c1ccc(OCCN2CCCCC2)cc1`, for which the EC50 was 86 µM.

Test system in another data set: not listed separately
Briefly: Cytotoxicity against human HK-2 cells assessed as cell growth inhibition incubated for 48 hrs by SRB assay. The format is toxicity, cell-based.
Conditions: not given
As for `Cc1c(O)c(=O)ccn1-c1ccc(N(C)CCO)cc1`, the CC50 at 48 h is above 100 µM.
Same read-out and setting: for `COc1cc(N2CCN(C)CC2)ccc1-n1ccc(=O)c(O)c1C` the value was above 100 µM; for `Cc1c(O)c(=O)ccn1-c1ccc(OC2CCN(C)C2)cc1` (stereo not drawn), above 100 µM; for `Cc1c(O)c(=O)ccn1-c1ccc(N(C)CCN(C)C)cc1.Cl`, above 100 µM.
Take `Cc1c(O)c(=O)ccn1-c1ccc(OCCN(C)C)cc1`: the CC50 at 48 h is above 100 µM.
Turning to `Cc1c(O)c(=O)ccn1CCN(C)C`, the CC50 at 48 h is above 100 µM.
On the same count and under the same terms, as for `Cc1c(O)c(=O)ccn1CC1CCCCC1`, the figure is above 100 µM; as for `Cc1c(O)c(=O)ccn1-c1ccc(N2CCN(C)CC2)cc1`, 81 µM.
The same measure, in the same setting: for `Cc1c(O)c(=O)ccn1-c1ccc(NCCN2CCN(C)CC2)cc1` the value was above 100 µM; for `Cc1c(O)c(=O)ccn1-c1ccc(OCCN2CCCCC2)cc1`, above 100 µM.

The subject of another data set is HK-2. Briefly: Anti-ferroptotic activity against RSL3-induced ferroptosis in human HK-2 cells assessed as decrease in lipid peroxidation by measuring fluorescent intensity preincubated with FAC for 2 hrs followed by compound addition and measured after 12 hrs by flow cytometry analysis. The class given is functional, cell-based.
Conditions: not given
On the technique in general: Flow cytometry measures light scatter and fluorescence of single cells or particles in a stream.
As for `Cc1c(O)c(=O)ccn1-c1ccc(N(C)CCN(C)C)cc1.Cl`, the result was Active.
Same read-out and setting: as for `Cc1c(O)c(=O)ccn1-c1ccc(OCCN(C)C)cc1`, the entry is “Active”.

Test system in another data set: not listed separately
Briefly: Antioxidant activity assessed as ABTS radical scavenging activity incubated for 6 mins by absorbance based microplate reader analysis. The class given is functional.
Conditions: not given
For the compound `Cc1c(O)c(=O)ccn1-c1ccc(N(C)CCN(C)C)cc1.Cl`, the IC50 was determined as 12.3 µM.
Still for that read-out and setting: for `Cc1c(O)c(=O)ccn1-c1ccc(OCCN(C)C)cc1` the value was 22.9 µM.

Test system in another data set: not listed separately
Briefly: Potency index, ratio of trolox IC50 to test compound IC50 for antioxidant activity assessed as ABTS radical scavenging activity incubated for 6 mins by absorbance based microplate reader analysis. The class given is functional.
Conditions: not given
On to `Cc1c(O)c(=O)ccn1-c1ccc(N(C)CCN(C)C)cc1.Cl`, for which the Ratio IC50 was determined as 1.5.
The same measure, in the same setting: for `Cc1c(O)c(=O)ccn1-c1ccc(OCCN(C)C)cc1` the value was 1.5.

In another data set the test system is HK-2. Briefly: Upregulation in intracellular HIF-1alpha level in human HK-2 cells at 20 uM under normoxia condition incubated for 12 hrs by Western blot analysis. The class given is functional, cell-based.
Conditions: not given
In the case of `Cc1c(O)c(=O)ccn1-c1ccc(N(C)CCN(C)C)cc1.Cl`, the outcome was Active.

In the next data set the test system is HK-2. Briefly: Upregulation in intracellular HIF-1alpha level in human HK-2 cells at 50 uM under normoxia condition incubated for 12 hrs by Western blot analysis. The class given is functional, cell-based.
Conditions: not given
Take `Cc1c(O)c(=O)ccn1-c1ccc(N2CCN(C)CC2)cc1`: the outcome was Active.

In another data set the test system is Mus musculus. Briefly: Upregulation of HIF-1alpha expression in C57BL/6 mouse kidney at 50 mg/kg, ip administered for every 12 hrs for 3 days and measured after 5 days. The format is functional, organism-based.
Conditions: not given
As for `Cc1c(O)c(=O)ccn1-c1ccc(N(C)CCN(C)C)cc1.Cl`, the outcome was Active.

The test system of another data set is Mus musculus. Briefly: Reno-protective activity against glycerol-induced rhabdomyolysis acute kidney injury C57BL/6 mouse model assessed as decrease in BUN level at 4 to 10 mg/kg, ip preadministered with every 12 hrs of compound for 5 times in first three days with subsequent 1 hrs compound treatment after 16 hrs of water deprivation followed by glycerol administration and measured on day 5. The class given is functional, organism-based. The note with it: dose 4-10 mg/kg, time 5.0 day.
As to `Cc1c(O)c(=O)ccn1-c1ccc(N(C)CCN(C)C)cc1.Cl`, the outcome was Active.

Another data set relates to Mus musculus. Briefly: Reno-protective activity against glycerol-induced rhabdomyolysis acute kidney injury C57BL/6 mouse model assessed as decrease in serum creatinine level at 4 to 10 mg/kg, ip preadministered with every 12 hrs of compound for 5 times in first three days with subsequent 1 hrs compound treatment after 16 hrs of water deprivation followed by glycerol administration and measured on day 5. The format is functional, organism-based. Particulars: dose 4-10 mg/kg, time 5.0 day.
For `Cc1c(O)c(=O)ccn1-c1ccc(N(C)CCN(C)C)cc1.Cl`, the result was Active.

A further data set has as its system Mus musculus. Briefly: Reno-protective activity against glycerol-induced rhabdomyolysis acute kidney injury C57BL/6 mouse model assessed as decrease in BUN level at 4 mg/kg, ip preadministered with every 12 hrs of compound for 5 times in first three days with subsequent 1 hrs compound treatment after 16 hrs of water deprivation followed by glycerol administration and measured on day 5. The class given is functional. On the set-up: scale not given: the % may be the effect or the level left. The note with it: time 5 day.
Consider `Cc1c(O)c(=O)ccn1-c1ccc(N(C)CCN(C)C)cc1.Cl`, for which the Activity came out at 19%.

Another data set concerns Mus musculus. Briefly: Reno-protective activity against glycerol-induced rhabdomyolysis acute kidney injury C57BL/6 mouse model assessed as decrease in serum creatinine level at 4 mg/kg, ip preadministered with every 12 hrs of compound for 5 times in first three days with subsequent 1 hrs compound treatment after 16 hrs of water deprivation followed by glycerol administration and measured on day 5. The format is functional. On the set-up: scale not given: the % may be the effect or the level left. The note with it: time 5 day.
`Cc1c(O)c(=O)ccn1-c1ccc(N(C)CCN(C)C)cc1.Cl`: the Activity came out at 14%.

The next data set has as its system Mus musculus. Briefly: Reno-protective activity against glycerol-induced rhabdomyolysis acute kidney injury C57BL/6 mouse model assessed as decrease in serum creatinine level at 10 mg/kg, ip preadministered with every 12 hrs of compound for 5 times in first three days with subsequent 1 hrs compound treatment after 16 hrs of water deprivation followed by glycerol administration and measured on day 5. The class given is functional. On the set-up: scale not given: the % may be the effect or the level left. Particulars: time 5 day.
Consider `Cc1c(O)c(=O)ccn1-c1ccc(N(C)CCN(C)C)cc1.Cl`, for which the Activity is recorded as 68%.

The test system of the next data set is Mus musculus. Briefly: Reno-protective activity against glycerol-induced rhabdomyolysis acute kidney injury C57BL/6 mouse model assessed as decrease in BUN level at 10 mg/kg, ip preadministered with every 12 hrs of compound for 5 times in first three days with subsequent 1 hrs compound treatment after 16 hrs of water deprivation followed by glycerol administration and measured on day 5. The format is functional. Also on record: scale not given: the % may be the effect or the level left. Particulars: time 5 day.
Regarding `Cc1c(O)c(=O)ccn1-c1ccc(N(C)CCN(C)C)cc1.Cl`, the Activity is 44%.

Test system in the next data set: not listed separately
Briefly: Toxicity in C57BL/6 mouse assessed as kidney damage at 10 mg/kg, ip measured for 3 days by H and E staining based analysis. Particulars: in vivo, 72 h, time 3 day. The format is organism-based.
In the case of `Cc1c(O)c(=O)ccn1-c1ccc(N(C)CCN(C)C)cc1.Cl`, the Activity entry is “Non-Toxic”.

The test system of the next data set is Mus musculus. Briefly: Reno-protective activity against glycerol-induced rhabdomyolysis acute kidney injury C57BL/6 mouse model assessed as decrease in iron accumulation in kidney at 4 to 10 mg/kg, ip preadministered with every 12 hrs of compound for 5 times in first three days with subsequent 1 hrs compound treatment after 16 hrs of water deprivation followed by glycerol administration and measured on day 5. The class given is functional, organism-based. The note with it: dose 4-10 mg/kg, time 5.0 day.
With `Cc1c(O)c(=O)ccn1-c1ccc(N(C)CCN(C)C)cc1.Cl`, the outcome was Active.

The test system of the next data set is Mus musculus. Briefly: Reno-protective activity against glycerol-induced rhabdomyolysis acute kidney injury C57BL/6 mouse model assessed as downregulation of Ptgs2 mRNA expression at 4 to 10 mg/kg, ip preadministered with every 12 hrs of compound for 5 times in first three days with subsequent 1 hrs compound treatment after 16 hrs of water deprivation followed by glycerol administration and measured on day 5 by qRT-PCR analysis. The note with it: dose 4-10 mg/kg, time 5.0 day. The class given is functional, organism-based. A general note: In qPCR the cycle at which signal appears reflects the starting amount.
Turning to `Cc1c(O)c(=O)ccn1-c1ccc(N(C)CCN(C)C)cc1.Cl`, the outcome was Active.

Another data set concerns Mus musculus. Briefly: Reno-protective activity against glycerol-induced rhabdomyolysis acute kidney injury C57BL/6 mouse model assessed as downregulation of […] mRNA expression at 4 to 10 mg/kg, ip preadministered with every 12 hrs of compound for 5 times in first three days with subsequent 1 hrs compound treatment after 16 hrs of water deprivation followed by glycerol administration and measured on day 5 by qRT-PCR analysis. The class given is functional, organism-based. Particulars: dose 4-10 mg/kg, time 5.0 day.
For `Cc1c(O)c(=O)ccn1-c1ccc(N(C)CCN(C)C)cc1.Cl`, the result was Active.

Test system in a further data set: not listed separately
Briefly: Sub-acute in C57BL/6 mouse assessed as change in body weight at 200 mg/kg, ip measured for 7 days. The format is toxicity, organism-based. The note with it: in vivo, 168 h, time 7 day.
On to `Cc1c(O)c(=O)ccn1-c1ccc(N(C)CCN(C)C)cc1.Cl`, for which the Activity entry is reported as “Non-Toxic”.

Test system in the next data set: not listed separately
Briefly: Sub-acute in C57BL/6 mouse assessed as animal death at 1 mg/kg, ip measured for 7 days. The format is toxicity, organism-based. The note with it: in vivo, 168 h, time 7 day.
In the case of `Cc1c(O)c(=O)ccn1-c1ccc(N(C)CCN(C)C)cc1.Cl`, the Activity entry is on record as “Non-Toxic”.

Test system in another data set: not listed separately
Briefly: Sub-acute in C57BL/6 mouse assessed as poisoning symptoms at 1 mg/kg, ip measured for 7 days. The class given is toxicity, organism-based. The note with it: in vivo, 168 h, time 7 day.
For the compound `Cc1c(O)c(=O)ccn1-c1ccc(N(C)CCN(C)C)cc1.Cl`, the Activity entry is “Non-Toxic”.
